Assays:
Type in all cases: in vivo
[1] = test system: ragweed (common ragweed, Ambrosia artemisiifolia); test: Test A preemergence soil spray, visual injury rating 0-100; conditions: 10 days, 0 = no effect, 100 = complete control
Summary of the method: (§1)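 Greenhouse test: loam/sand pots received a surfactant-containing formulation, as a preemergence directed soil spray or a postemergence spray on young plants. Injury was judged visually at day 10 relative to untreated controls.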

[2] = test system: palmer (palmer amaranth, palmer pigweed, Amaranthus palmeri); test: as above; conditions: 10 days, 0 = no effect, 100 = complete control
Summary of the method: as §1

kochia (Bassia scoparia) [3] = test: as above; conditions: 10 days, 0 = no effect, 100 = complete control
Summary of the method: as §1

[4] = test system: barnyardgrass (Echinochloa crus-galli); test: as above; conditions: 10 days, 0 = no effect, 100 = complete control
Summary of the method: as §1

[5] = test system: ryegrass, Italian (italian ryegrass, Lolium multiflorum); test: as above; conditions: 10 days, 0 = no effect, 100 = complete control
Summary of the method: as §1

corn (Zea mays) [6] = test: as above; conditions: 10 days, 0 = no effect, 100 = complete control
Summary of the method: as §1

[7] = test system: wheat (Triticum aestivum); test: as above; conditions: 10 days, 0 = no effect, 100 = complete control
Summary of the method: as §1

soybean (Glycine max) [8] = test: as above; conditions: 10 days, 0 = no effect, 100 = complete control
Summary of the method: as §1

[9] = test system: green foxtail (Setaria viridis); test: as above; conditions: 10 days, 0 = no effect, 100 = complete control
Summary of the method: as §1

[10] = test system: oat, wild (wild oat, Avena fatua); test: as above; conditions: 10 days, 0 = no effect, 100 = complete control
Summary of the method: as §1

[11] = test system: blackgrass (Alopecurus myosuroides); test: as above; conditions: 10 days, 0 = no effect, 100 = complete control
Summary of the method: as §1

rice (Oryza sativa) = test: Test B flooded paddy test, visual plant response rating 0-100; conditions: 250 g ai/ha, Flood, applied to paddy water, evaluated after 13 days
Summary of the method: (§2)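 Compounds applied to standing paddy water (3 cm above soil, maintained for the test duration) on 2-leaf-stage plants; visual rating vs controls at 13 days, greenhouse.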

[12] = test system: ducksalad (Heteranthera limosa); test: as above; conditions: 250 g ai/ha, Flood, applied to paddy water, evaluated after 13 days
Summary of the method: as §2

[13] = test system: barnyardgrass (Echinochloa crusgalli); test: as above; conditions: 250 g ai/ha, Flood, applied to paddy water, evaluated after 13 days
Summary of the method: as §2

[14] = test system: sedge, umbrella (small-flower umbrella sedge, Cyperus difformis); test: as above; conditions: 250 g ai/ha, Flood, applied to paddy water, evaluated after 13 days
Summary of the method: as §2

[15] = test system: ragweed (common ragweed, Ambrosia artemisiifolia); test: Test A postemergence application, visual injury rating 0-100; conditions: Postemergence
Summary of the method: as §1

[16] = test system: palmer (palmer amaranth, palmer pigweed, Amaranthus palmeri); test: as above; conditions: Postemergence
Summary of the method: as §1

kochia (Bassia scoparia) [17] = test: as above; conditions: Postemergence
Summary of the method: as §1

[18] = test system: barnyardgrass (Echinochloa crus-galli); test: as above; conditions: Postemergence
Summary of the method: as §1

[19] = test system: ryegrass, Italian (italian ryegrass, Lolium multiflorum); test: as above; conditions: Postemergence
Summary of the method: as §1

corn (Zea mays) [20] = test: as above; conditions: Postemergence
Summary of the method: as §1

[21] = test system: wheat (Triticum aestivum); test: as above; conditions: Postemergence
Summary of the method: as §1

soybean (Glycine max) [22] = test: as above; conditions: Postemergence
Summary of the method: as §1

[23] = test system: horseweed (Erigeron canadensis); test: as above; conditions: Postemergence
Summary of the method: as §1

[24] = test system: green foxtail (Setaria viridis); test: as above; conditions: Postemergence
Summary of the method: as §1

[25] = test system: oat, wild (wild oat, Avena fatua); test: as above; conditions: Postemergence
Summary of the method: as §1

[26] = test system: galium (catchweed bedstraw, Galium aparine); test: as above; conditions: Postemergence
Summary of the method: as §1

[27] = test system: blackgrass (Alopecurus myosuroides); test: as above; conditions: Postemergence
Summary of the method: as §1

[28] = 31 g ai/ha, greenhouse 10 days, 0 no effect, 100 complete control
[29] = 125 g ai/ha, 10 days, 0 is no effect, 100 is complete control

CC(=O)COC(=O)C1C=CC(NC(=O)C2(C)CN(c3cc(Cl)cc(Cl)c3)C(=O)O2)C1 (stereo not shown) [Compound 67]
65: Plant response rating, Barnyardgrass (0 to 100 scale, 0 is no effect and 100 is complete control) [13]
60: Ragweed plant response rating (0 to 100 scale) ([1]; 125 g ai/ha)
50: Barnyardgrass plant response rating (0-100) ([4]; 31 g ai/ha) | Ragweed plant response rating (0 to 100 scale) [15, 28] | Horseweed plant response rating (0 to 100 scale) [23, 28]
90: Amaranth, Palmer plant response rating (0-100) ([2]; 31 g ai/ha) | Barnyardgrass plant response rating (0 to 100 scale) ([4]; 125 g ai/ha) | Wheat plant response rating (0 to 100 scale) ([7]; 125 g ai/ha) | Foxtail, Green plant response rating (0 to 100 scale) ([9]; 125 g ai/ha) | Amaranth, Palmer / Pigweed, Palmer plant response rating (0 to 100 scale) [16, 29] | Ryegrass, Italian plant response rating (0 to 100 scale) [19, 29] | Wheat plant response rating (0 to 100 scale) [21, 28] | Wheat plant response rating (0 to 100 scale) [21, 29] | Foxtail, Green plant response rating (0 to 100 scale) [24, 28] | Foxtail, Green plant response rating (0 to 100 scale) [24, 29] | Oat, Wild plant response rating (0 to 100 scale) [25, 28] | Oat, Wild plant response rating (0 to 100 scale) [25, 29] | Galium plant response rating (0 to 100 scale) [26, 29] | Blackgrass plant response rating (0 to 100 scale) [27, 28]
30: Wheat plant response rating (0-100) ([7]; 31 g ai/ha) | Soybean plant response rating (0 to 100 scale) (soybean (Glycine max) [8]; 125 g ai/ha) | Plant response rating, Rice (0 to 100 scale, 0 is no effect and 100 is complete control) (rice (Oryza sativa))
80: Kochia plant response rating (0 to 100 scale) (kochia (Bassia scoparia) [3]; 125 g ai/ha) | Ryegrass, Italian plant response rating (0 to 100 scale) ([5]; 125 g ai/ha) | Ragweed plant response rating (0 to 100 scale) [15, 29] | Amaranth, Palmer / Pigweed, Palmer plant response rating (0 to 100 scale) [16, 28] | Soybean plant response rating (0 to 100 scale) (soybean (Glycine max) [22]; [28]) | Soybean plant response rating (0 to 100 scale) (soybean (Glycine max) [22]; [29]) | Galium plant response rating (0 to 100 scale) [26, 28]
70: Kochia plant response rating (0-100) (kochia (Bassia scoparia) [3]; 31 g ai/ha) | Ryegrass, Italian plant response rating (0-100) ([5]; 31 g ai/ha) | Corn plant response rating (0 to 100 scale) (corn (Zea mays) [6]; 125 g ai/ha) | Oat, Wild plant response rating (0 to 100 scale) ([10]; 125 g ai/ha) | Blackgrass plant response rating (0 to 100 scale) ([11]; 125 g ai/ha) | Kochia plant response rating (0 to 100 scale) (kochia (Bassia scoparia) [17]; [28]) | Kochia plant response rating (0 to 100 scale) (kochia (Bassia scoparia) [17]; [29]) | Ryegrass, Italian plant response rating (0 to 100 scale) [19, 28] | Horseweed plant response rating (0 to 100 scale) [23, 29]
100: Amaranth, Palmer plant response rating (0 to 100 scale) ([2]; 125 g ai/ha) | Plant response rating, Sedge, Umbrella (0 to 100 scale, 0 is no effect and 100 is complete control) [14] | Barnyardgrass plant response rating (0 to 100 scale) [18, 28] | Barnyardgrass plant response rating (0 to 100 scale) [18, 29] | Corn plant response rating (0 to 100 scale) (corn (Zea mays) [20]; [28]) | Corn plant response rating (0 to 100 scale) (corn (Zea mays) [20]; [29]) | Blackgrass plant response rating (0 to 100 scale) [27, 29]
40: Oat, Wild plant response rating (0-100) ([10]; 31 g ai/ha)
20: Foxtail, Green plant response rating (0-100) ([9]; 31 g ai/ha) | Blackgrass plant response rating (0-100) ([11]; 31 g ai/ha)
98: Plant response rating, Ducksalad (0 to 100 scale, 0 is no effect and 100 is complete control) [12]
0: Ragweed plant response rating (0-100) ([1]; 31 g ai/ha) | Corn plant response rating (0-100) (corn (Zea mays) [6]; 31 g ai/ha) | Soybean plant response rating (0-100) (soybean (Glycine max) [8]; 31 g ai/ha)

Reference: patent US20260285850A1, “SUBSTITUTED OXAZOLIDINONES AND IMIDAZOLINONES AS HERBICIDES” (FMC CORPORATION, priority 2023, published 2026)
